Results taken from publication PMC7242257, “Impact of Magnesium Stearate Presence and Variability on Drug Apparent Solubility Based on Drug Physicochemical Properties” (The AAPS Journal, 2020).

How the values were obtained:
[1] = parameters: method as in earlier work; settings: based on BCS classification (20); ref (24), (26), (28), (29), (31), (34), (35), (38); cited from earlier work
[2] = Relative effect of MgSt on drug apparent solubility (shake-flask, physical mixtures); settings: phosphate buffer pH 6.8
Procedure: Drug solubility studies in the absence and presence of excipient were performed in triplicate using the shake-flask method [41]. Drug excess amount and 2% w/w or 5% w/w of each excipient were weighed and placed in centrifuge tubes. […] The physical mixtures were vortexed for 3 min. Five millilitres of each medium was added in the tubes and the samples were placed in a shaking water bath (37°C, 200 strokes per minute (spm)). […] Filter adsorption studies were performed prior in triplicate for each drug. […] Filtered samples were further diluted (if needed) with the corresponding medium and analysed by HPLC (Supplementary Table I). […] Drug quantification was made based on calibration curves. Standards were formulated from concentrated stock solutions consisting of drug dissolved in MeOH. As changes in the pH of solutions by the presence of the dissolved drug [34] or MgSt [43, 44] may affect drug solubility, the pH of samples after the completion of each experiment was measured. Drug solubility was calculated based on the sample drug concentration measured.
The relative effect (RE) of each excipient on drug apparent solubility was calculated based on Eq.

Relative effect (RE) on drug solubility at 24 h ([2]; 2% Ligamed MF-2-V) | Relative effect (RE) on drug solubility at 24 h ([2]; 2% Ligamed MF-3-V) | SMILES | Solubility (BCS-based class) [1]
– | – | OCCN(CCO)c1nc(N2CCCCC2)c2nc(N(CCO)CCO)nc(N3CCCCC3)c2n1 [DPL, Dipyridamole] | Low (34)
29% | 27% | NC(=O)N1c2ccccc2C=Cc2ccccc21 [CBZ, Carbamazepine] | Low (31)
– | – | CCC(C)n1ncn(-c2ccc(N3CCN(c4ccc(OCC5COC(Cn6cncn6)(c6ccc(Cl)cc6Cl)O5)cc4)CC3)cc2)c1=O (centres unmarked) [ITZ, Itraconazole] | Low (38)
